Measurements reported in patent publication US10487084B2, “Toll-like receptor 7 (TLR7) agonists having a heterobiaryl moiety, conjugates thereof, and methods and uses therefor” (BRISTOL-MYERS SQUIBB COMPANY, priority 2017, dated 2019).

Tests used:
[1] = target: human TLR7 (Homo sapiens (Human), UniProt Q9NYK1); assay: HEK-Blue TLR7 reporter assay (TLR7 agonism); type: cell-based; conditions: HEK-Blue TLR7 cells, SEAP reporter, 18 h treatment
Experimental: This example describes a method for assaying TLR7 agonist activity of the compounds disclosed in this specification.
HEK-Blue™ TLR7 cells were added to each well of a 384-well tissue-culture plate (15,000 cells per well) and incubated 16-18 h at 37° C., 5% CO2. Compounds (100 nl) were dispensed into wells containing the HEK-Blue™ TLR cells and the treated cells were incubated at 37° C., 5% CO2. After 18 h treatment ten microliters of freshly-prepared Quanti-Blue™ reagent (Invivogen) was added to each well, incubated for 30 min (37° C., 5% CO2) and SEAP levels measured using an Envision plate reader (OD=620 nm).

[2] = tested on: interleukin 6 (IL-6); assay: Interleukin 6 induction assay in human whole blood; type: cell-based; conditions: 37° C. for 20 h, AlphaLISA
Experimental: This example describes a method for assaying interleukin 6 induction by compounds disclosed in this specification.
Compounds diluted in DMSO were transferred to individual wells of a Matrix Tech-nologies clear, V-bottom 384-well plate using ECHO acoustic liquid handling technology (25 nL per well). Human whole-blood samples (25 uL) were added to each well using a CyBio FeliX liquid handling instrument. The plate was shaken on a plate shaker for three min before incubating the reaction mixtures at 37° C. for 20 h. Basel RPMI 1640 medium (supplemented with L-glutamine) was then added to each well (25 uL per well) prior to liberating plasma from each sample by centrifugation (450×g, 5 min, ambient temperature). Treated plasma samples (3 uL) were subsequently transferred to individual wells of a white, shallow, 384-well ProxiPlate (Perkin Elmer) using the FeliX liquid handling instrument and their interleukin 6 levels were measured using AlphaLISA technology as described by the manufacturer, PerkinElmer. Data analyses software was used to determine compound EC50 values where the baseline was established using average DMSO values and 100% induction established using reference compound values at the highest concentration tested. EC50's can be determined with software such as Graphpad Prism™.

[3] = tested on: IFN-α; conditions: fold lower potency vs corresponding purine-8-one compound; cited from earlier work

human TLR7, sequence (Q9NYK1 27-1049): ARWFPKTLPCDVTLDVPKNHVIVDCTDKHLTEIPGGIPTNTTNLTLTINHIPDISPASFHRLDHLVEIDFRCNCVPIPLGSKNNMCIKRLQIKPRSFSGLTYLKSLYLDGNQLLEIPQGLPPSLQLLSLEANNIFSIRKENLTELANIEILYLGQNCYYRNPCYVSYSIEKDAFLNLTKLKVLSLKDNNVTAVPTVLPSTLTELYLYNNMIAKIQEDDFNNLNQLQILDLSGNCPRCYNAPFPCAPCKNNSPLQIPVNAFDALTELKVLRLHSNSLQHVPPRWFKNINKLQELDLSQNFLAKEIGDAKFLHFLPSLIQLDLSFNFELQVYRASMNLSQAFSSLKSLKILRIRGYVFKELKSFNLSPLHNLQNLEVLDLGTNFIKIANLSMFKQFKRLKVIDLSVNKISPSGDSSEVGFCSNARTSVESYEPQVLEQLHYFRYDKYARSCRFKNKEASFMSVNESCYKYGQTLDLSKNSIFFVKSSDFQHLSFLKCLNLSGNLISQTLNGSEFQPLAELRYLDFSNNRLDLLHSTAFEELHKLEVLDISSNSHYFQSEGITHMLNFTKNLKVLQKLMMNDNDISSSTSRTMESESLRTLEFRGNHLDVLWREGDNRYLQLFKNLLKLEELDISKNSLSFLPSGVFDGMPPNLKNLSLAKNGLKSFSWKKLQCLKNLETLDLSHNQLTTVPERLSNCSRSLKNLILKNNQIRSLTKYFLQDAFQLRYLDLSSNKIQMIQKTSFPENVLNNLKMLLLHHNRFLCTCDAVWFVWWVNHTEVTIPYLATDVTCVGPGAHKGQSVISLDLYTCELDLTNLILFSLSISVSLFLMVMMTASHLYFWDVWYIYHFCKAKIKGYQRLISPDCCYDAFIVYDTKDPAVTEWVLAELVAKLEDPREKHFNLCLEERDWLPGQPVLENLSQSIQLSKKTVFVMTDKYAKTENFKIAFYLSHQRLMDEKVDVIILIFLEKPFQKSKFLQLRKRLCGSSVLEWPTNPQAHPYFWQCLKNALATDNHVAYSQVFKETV

EC50 [1] [nM]	EC50 [2] [nM]	SMILES	potency less than that of the corresponding purine-8-one compound, as measured by IFN-α induction [3] [×]
474		CCCCOc1nc(N)c2nc(O)n(Cc3ccccc3)c2n1 [Compound B, reference compound]	
16	108	CCCCOc1nc(N)c2nc(O)n(Cc3ccc(-c4cnn(CCO)c4)cc3)c2n1 [Ia-01]	
26	15	CCCCOc1nc(N)c2nc(O)n(Cc3ccc(-c4cnn(C5CNC5)c4)cc3)c2n1 [Ia-03]	
7.5	6.9	CCCCOc1nc(N)c2nc(O)n(Cc3ccc(-c4cnn(CCNC5CCC5)c4)cc3)c2n1 [Ia-04]	
24	88.7	CCCCOc1nc(N)c2nc(O)n(Cc3ccc(-c4cnn(CC(=O)NC5CNC5)c4)cc3)c2n1 [Ia-06]	
	106	CCCCOc1nc(N)c2nc(O)n(Cc3ccc(-c4csc(CN)c4)cc3)c2n1 [Ib-01]	
	7.55	CCCCOc1nc(N)c2nc(O)n(Cc3ccc(-c4csc(CN)c4)nc3)c2n1 [Ib-02]	
99	365	CCCCOc1nc(N)c2nc(O)n(Cc3ccc(-c4nc(CO)co4)cc3)c2n1 [Ic-01]	
		CCCCOc1nc(N)c2c(n1)N(Cc1cccc(CN3CCCC3)c1)CC(=O)N2 [Vesatolimod, vesatolimod]	100
